Data published in US20240374558A1, “PREPARATION OF PHENE[…] […] STEREOISOMERS THEREOF AND PRECURSORS THEREOF” (priority 2022, published 2024).
Like-named read-outs stand apart in the source and are kept apart here.

Columns and labels:
[1] = self-administration, healthy volunteers; Lourdes et al. 2021; cited from earlier work
[2] = XRPD analysis of pre- and post-DVS samples (form stability); format: physicochemical; details: after DVS 5-95-5% RH
Description: Two lots of methylone HCl samples were submitted to evaluate the stability of the solid forms under various humidity conditions. Dynamic vapor sorption (DVS) analysis was performed to evaluate the kinetic hygroscopicity and assess if variable humidity XRPD would be necessary, as well as to determine the appropriate humidity condition(s) for such XRPD analysis. Both pre- and post-DVS samples were analyzed by conventional XRPD for solid form confirmation or any potential form changes.
Each sample was prepared in a silicon low background holder using light manual pressure to keep the sample surface flat and level with the reference surface of the sample holder. The single crystal Si low background holder has a circular recess (10 mm diameter and about 0.2 mm depth) that holds the sample. The Rigaku Smart-Lab diffraction system used was configured for Bragg-Brentano reflection geometry using a line source X-ray beam. The Bragg-Brentano geometry was controlled by passive divergence and receiving slits with the sample itself acting as the focusing component for the optics.

mouse model of PTSD = assay: Fear extinction in a mouse model of PTSD; format: in vivo; details: 30 mg/kg, IP
Description: FIGS. 1A-1D: Methylone improves fear extinction recall in a mouse model of PTSD. (FIG. 1A) Schematic of experimental design. A single CS-US (tone-shock) pairing on day 1 was followed by 6 CS presentations in a novel context (context B). Methylone or saline vehicle was injected 30 min prior to extinction training on day 2. On day 3, the time spent freezing to the CS was quantified. […] (FIG. 1C) The time freezing before vs. during each of 6 cues on day 3 (to control for locomotor effects) are shown. There was a significant cue x drug interaction (F(5,130)=2.409, p<0.05). […] N=12 for methylone group (30 mg/kg, IP, orange diamonds) and N=16 for saline control group (black squares). *p<0.05
Effective PTSD treatments facilitate the disassociation between a traumatic memory and the patient's fear response, making cues for the traumatic memory evoke less of a fear response. This is modeled in the mouse fear extinction paradigm which takes place over 3 days. On day 1 (fear conditioning), mice are trained to acquire a “traumatic memory,” namely associating the conditioned stimulus (CS, tone) to the unconditioned stimulus (US, foot shock). On day 2 (extinction training), they are trained to forget the traumatic memory association by presenting the CS 6 times (with no US) in a novel environment. On day 3 (extinction recall), the mice are “asked” if that tone (CS) still elicits a fearful response, as measured by the time spent freezing when the tone is presented. Less time freezing means better extinction recall. Drugs that improve extinction recall reduce freezing time on day 3, and, therefore, show potential as a PTSD treatment.
Using these methods, prodrugs and/or enantiomers are administered to mice and tested for efficacy in the fear extinction model to evaluate their efficacy to treat PTSD and other memory disorders. Anxiolytic Effects in Other Behavioral Anxiety Models

open field test (OFT) [3] = details: 5, 10, 20 mg/kg, SC, rats; Stefkovi et al. 2017; cited from earlier work
PTSD symptoms = details: clinical case series of 21 individuals; cited from earlier work
open field test (OFT) [4] = assay: Open field test (OFT); design: species or system rats; details: rat, in vivo
Description: Additional behavioral testing including the elevated plus maze (EPM) and thigmotaxis in the open field test (OFT) are used to assess the anxiolytic effects of methylone and its prodrugs in mice or rats. […] These models are described in greater detail below. Prodrugs are screened in these behaviors to the anxiolytic efficacy of each compound.
Compounds are screened for their effects on both parameters. Briefly, rodents are assessed in a 30 minute OFT using an automated activity monitoring system. Rodents are acclimated to the room 30 minutes before the start of testing. The following parameters are captured: Horizontal distance travelled, overall ambulatory time, and ambulatory counts. Vertical activity (time and counts), Time in the Center vs. Periphery data are reported in 5-minute bins as well as total time.

[5] = Pharmacokinetics of methylone after a single IV, PO or IP administration (LC-MS/MS of plasma); format: in vivo, male Sprague Dawley rats
Description: The pharmacokinetic properties of methylone after a single administration intravenously (IV), intraperitoneally (IP), or by oral gavage (PO) in male Sprague Dawley rats has been determined using a liquid chromatography tandem mass spectrometry (LC-MS/MS) method that has been established and validated for methylone in the rat. Rats (n=3 per group) received a single dose of methylone: 5 mg/kg IV, 15 mg/kg IP, or 15 mg/kg PO.
To investigate whether the prodrug extends the half-life or alters other basic pharmacokinetic properties of methylone (e.g., Cmax or Tmax), rats are treated with each prodrug IV, IP, or PO. For each compound, three groups of rats are treated as follows: For group 1, a single dose of methylone is administered to 3 male Sprague-Dawley rats by IV bolus at 5 mg/kg. For group 2, a single dose of methylone is administered to 3 male Sprague-Dawley rats by oral gavage (PO) at 15 mg/kg. For group 3, a single dose of methylone is administered to 3 male Sprague-Dawley rats by IP at 15 mg/kg. For all groups, blood samples are collected from each animal at 0.083, 0.25, 0.5, 1, 2, 4, 8, 12, and 24 hours post-dose for the determination of plasma concentrations. The plasma concentrations are quantified by liquid chromatography tandem mass spectrometry (LC-MS/MS). The bioanalytical assay has been established and validated, providing a lower limit of quantification (LLOQ) of 1 ng/mL and an upper limit of quantification (ULOQ) of 3000 ng/mL for methylone. The plasma concentration-time data are analyzed using Phoenix WinNonlin (version 8.3) to characterize the PK properties of the analyte. The non-compartmental analysis model and the linear/log trapezoidal method are applied to calculating the PK parameters.

NET = NET (Rattus norvegicus, UniProt Q63380); assay: NE release study; format: biochemical
NET, sequence (Q63380 1-617): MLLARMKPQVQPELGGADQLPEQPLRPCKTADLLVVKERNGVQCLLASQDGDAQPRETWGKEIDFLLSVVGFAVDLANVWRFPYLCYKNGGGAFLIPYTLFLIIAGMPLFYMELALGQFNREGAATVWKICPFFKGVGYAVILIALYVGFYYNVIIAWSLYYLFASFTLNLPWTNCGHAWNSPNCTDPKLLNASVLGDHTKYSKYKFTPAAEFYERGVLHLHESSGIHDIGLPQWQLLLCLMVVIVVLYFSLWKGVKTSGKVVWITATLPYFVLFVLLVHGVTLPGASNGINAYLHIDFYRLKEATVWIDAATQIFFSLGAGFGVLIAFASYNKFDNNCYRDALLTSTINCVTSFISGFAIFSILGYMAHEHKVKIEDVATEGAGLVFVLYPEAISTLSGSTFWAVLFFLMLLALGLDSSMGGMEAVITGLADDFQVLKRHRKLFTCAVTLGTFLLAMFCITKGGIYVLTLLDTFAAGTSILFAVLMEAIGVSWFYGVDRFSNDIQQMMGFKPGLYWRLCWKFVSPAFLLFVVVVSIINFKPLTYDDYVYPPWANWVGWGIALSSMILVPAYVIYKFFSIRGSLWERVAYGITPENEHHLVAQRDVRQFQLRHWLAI

[6] = tested on: rat forced swim test (FST); assay: Rat forced swim test (FST); format: in vivo; details: 10 mg/kg, IP
Description: The forced swim test (FST) is a classic model to assess the antidepressant-like activity of compounds that has been in use for over 40 years (Porsolt et al. (1977) Nature 266:730-732; Detke et al. (1995) Psychopharmacology 121:66-72). […] A single dose of 5 mg/kg methylone reduces immobility by approximately 50% compared to vehicle-treated controls, whereas a 15 mg/kg dose reduces immobility by nearly 100%. Accompanying changes in climbing and/or swimming behavior reflect noradrenergic and serotonergic activities of methylone, respectively.
All FST studies are performed and scored by an experimenter blind to treatment group and according to standard protocols. Briefly, rats are placed in a circular plexiglass container filled with water. Water temperature is maintained at 22-25° C. and changed for every animal. Day 1 (Training) consists of a 15 min acclimation trial, and Day 2 (Testing, 24 h later) consists of the 5 min test. A time sampling procedure is employed where animals are observed every 5 seconds for the duration of the test session (60 counts or 5 minutes) and scored for immobility (defined as the failure to struggle), swimming (defined as a circular movement around the tank), or climbing (defined as an upwards escape behavior). Data are expressed as the percent of the testing session (e.g., the number of immobility counts divided by 60). A p-value less than 0.05 indicates statistical significance after typical statistical analyses (e.g., unpaired t-test or ANOVA).
To determine that the prodrug and/or enantiomer has an antidepressant-like effect and to compare it to methylone, rats are treated with each compound 30 min prior to testing. Additional tests are run 24, 72, 168 hours post-dose or longer. Effects on Fear Extinction in a Model of Post-Traumatic Stress Disorder (PTSD)
Racemic methylone (10 mg/kg, IP) has a maximal antidepressant-like effect in the rat forced swim test (FST), reducing immobility by nearly 100% compared to vehicle treated controls. […]

[7] = target: T1, norepinephrine transporter (NET) (Rattus norvegicus, UniProt Q63380); assay: Competition radioligand binding, [3H]Nisoxetine, brain synaptosome membranes; design: species or system rat (Sprague Dawley)
T1 construct: hippocampus plus overlying occipital cortex for norepinephrine transporter assays; from tissue
T1 sequence (Q63380 1-617): as above
Excerpt: Rat brain (Sprague Dawley, 200-250 g) synaptosomes were isolated from midbrain and hindbrain for serotonin transporter assays, striatum for dopamine transporter assays, and hippocampus plus overlying occipital cortex for norepinephrine transporter assays. Radioligands used were: [^3H]Citalopram 81.4 Ci/mmol (PerkinElmer NET1039250UC; Lot No. 2960876). [3H]WIN35428 82.8 Ci/mmol (PerkinElmer NET1033250UC; Lot No. 2891473). [^3H]Nisoxetine 79.2 Ci/mmol (PerkinElmer NET1084250UC; Lot No. 2970324). Non-specific compounds used were: Citalopram (Tocris Bioscience 1427). JHW007 (Tocris Bioscience 4351). Nomifensine (Abcam abl46004). Test Compounds for the study were: racemic methylone HCl; (R)-methylone HCl; (S)-methylone HCl.
For membrane preparations, rat brains were dissected, tissue was added to ice-cold lysis buffer (50 mM Tris HCl; 5 mM MgCl2; 5 mM EDTA; protease inhibitor cocktail) and homogenized. […] A sample of the homogenate was analyzed for protein content using the MERCK® BCA assay. […]
Competition binding assays were carried out in 96-well polypropylene plates in a final volume of 250 μL per well. […] Filters were then dried under a warm air stream, sealed in polyethylene, scintillation cocktail added, and the radioactivity counted in a WALLAC® TriLux 1450 MicroBeta counter. […] Ki was subsequently calculated using the ChengPrusoff equation.

Which “systolic and diastolic blood pressure” value [1] does the source give for `CNC(C)Cc1ccc2c(c1)OCO2` (centres unmarked) [MDMA, 3,4-methylenedioxymethamphetamine, reference compound] here?
Its value is “significant increase”.

For `CNC(C)C(=O)c1ccc2c(c1)OCO2.Cl` [lot KRR-R&D-2022-II-58, methylone HCl], which “form changes, post-DVS vs pre-DVS XRPD pattern” value [2] is on record?
Its value is “No form changes”.

For `CNC(C)C(=O)c1ccc2c(c1)OCO2` (centres unmarked) [Methylone, methylone], which “fear extinction recall (freezing time during the first cue on day 3) vs saline” value (mouse model of PTSD) is on record?
Its value is “significantly improves fear extinction recall”.

And the “locomotor changes on day 3” value (mouse model of PTSD)?
Its value is “No locomotor changes”.

And the “fear extinction recall (freezing time during the first cue on day 3) vs saline” value (mouse model of PTSD; listed as methylone)?
The value was “significantly reduced”.

What about the “thigmotaxis (time spent hugging the perimeter of the open field)” value (open field test (OFT) [3]) of the same compound?
Its value is “reduce thigmotaxis”.

And the “patients with improved PTSD symptoms” value (PTSD symptoms)?
Its value is 81%.

And the “locomotor activity in the OFT” value (open field test (OFT) [4])?
The value was “increases locomotor activity”.

What about the “time in the center vs the periphery in the OFT” value (open field test (OFT) [4]) of the same compound?
Its value is “reduces time spent in the center vs the periphery”.

And the AUC0-last ([5]; Group 1 (IV), 5 mg/kg)?
Its AUC0-last is 1200 ± 88.2 ng·h/mL.

And the C0 ([5]; Group 1 (IV), 5 mg/kg)?
The C0 was 3018 ± 666 ng/mL.

What about the Cl ([5]; Group 1 (IV), 5 mg/kg) of the same compound?
The Cl was 68.3 ± 5.40 mL/min/kg.

What about the MRT0-last ([5]; Group 1 (IV), 5 mg/kg) of the same compound?
The MRT0-last was 0.439 ± 0.026 h.

What about the Vdss ([5]; Group 1 (IV), 5 mg/kg) of the same compound?
The Vdss was 1.98 ± 0.230 L/kg.

And the AUC0-last ([5]; Group 2 (PO), 15 mg/kg)?
Its AUC0-last is 2765 ± 657 ng·h/mL.

What about the MRT0-last ([5]; Group 2 (PO), 15 mg/kg) of the same compound?
The MRT0-last was 2.99 ± 0.467 h.

What about the T1/2 ([5]; Group 2 (PO), 15 mg/kg) of the same compound?
The T1/2 was 3.23 ± 1.99 h.

What about the Tmax ([5]; Group 2 (PO), 15 mg/kg) of the same compound?
The Tmax was 1.33 ± 0.577 h.

And the Cmax ([5]; Group 2 (PO), 15 mg/kg, plasma)?
The Cmax was 678 ± 243 ng/mL.

And the AUC0-last ([5]; Group 3 (IP), 15 mg/kg)?
The AUC0-last was 4305 ± 1179 ng·h/mL.

What about the MRT0-last ([5]; Group 3 (IP), 15 mg/kg) of the same compound?
The MRT0-last was 1.07 ± 0.211 h.

And the Cmax ([5]; Group 3 (IP), 15 mg/kg, plasma)?
The Cmax was 4230 ± 514 ng/mL.

What about the Tmax ([5]; male, Sprague Dawley, rat, plasma, Group 3 (IP), 15 mg/kg, read-out: Tmax) of the same compound?
Its Tmax is 0.25 h.

And the heart rate [1]?
Its heart rate is “increase in heart rate”.

And the “systolic and diastolic blood pressure” value [1]?
Its value is “significant increase”.

With `CNC(C)C(=O)c1ccc2c(c1)OCO2` (racemic) [Racemic methylone, methylone] as the compound, how does the EC50 (NET) read?
The EC50 was 0.33 µM.

What about the “reduction of immobility compared to vehicle treated controls” value [6] of the same compound?
Its value is about 100%.

And the IC50 [7]?
The IC50 was 3.1 µM.

And the Ki [7]?
Its Ki is 1.46 µM.
